Data published in patent US20110136829A1, “3-(N-HETEROCYCLYL)-PYRROLIDINYL-PHENYL-OXAZOLIDINONES AS ANTIBACTERIAL AGENTS” (FERRER INTERNACIONAL, S.A., priority 2008, published 2011).
In brackets after ≈: the same amount, converted by molar mass.

Key:
S. aureus ATCC25923 MS = experiment: MIC by standard micro dilution method (NCCLS M7-A5); assay type: cell-based; conditions: Staphylococcus aureus, Mueller-Hinton medium (cation-adjusted), 16-24 h at 35° C., read-out: MIC, microorganism (1) S. aureus ATCC25923 MS
[1] = system: S. pneumoniae ATCC49619 PR; experiment: as above; assay type: cell-based; conditions: Streptococcus pneumoniae, 20-24 h at 35° C., 5% CO2, read-out: MIC, microorganism (2) S. pneumoniae ATCC49619 PR
E. faecium ATCC51559 MDR = experiment: as above; assay type: cell-based; conditions: Enterococcus faecium, Mueller-Hinton medium (cation-adjusted), 16-24 h at 35° C., read-out: MIC, microorganism (3) E. faecium ATCC51559 MDR
S. aureus LNZ-R 432 = experiment: as above; assay type: cell-based; conditions: Staphylococcus aureus, LNZR432; linezolid-resistant strain; Mueller-Hinton medium, 16-24 h at 35° C.; read-out: MIC, microorganism (4) S. aureus LNZ-R 432
S. haemolyticus = experiment: as above; assay type: cell-based; conditions: Staphylococcus haemolyticus; Mueller-Hinton medium (cation-adjusted), 16-24 h at 35° C.; read-out: MIC, microorganism (5) S. haemolyticus
H. influenzae ATCC49247 = experiment: as above; assay type: cell-based; conditions: Haemophilus influenzae, read-out: MIC, microorganism (6) H. influenzae ATCC49247
[2] = system: B. fragilis sp. fragilis ATCC25285; experiment: as above; assay type: cell-based; conditions: Bacteroides fragilis, anaerobic strain, Brucella Blood medium supplemented, read-out: MIC, microorganism (7) B. fragilis sp. fragilis ATCC25285
M. catarrhalis HCI-78 = experiment: as above; assay type: cell-based; conditions: Moraxella catarrhalis, HCI78; 20-24 h at 35° C., 5% CO2; read-out: MIC, microorganism (8) M. catarrhalis HCI-78
E. faecium LNZ-R LR-4 = experiment: as above; assay type: cell-based; conditions: Enterococcus faecium; linezolid-resistant strain; Mueller-Hinton medium, 16-24 h at 35° C.; read-out: MIC, microorganism (9) E. faecium LNZ-R LR-4
[3] = system: Moraxella, Pasteurella and Bacteroides spp.; conditions: background art; cited from earlier work
[4] = system: other Gram-negative bacteria; conditions: background art; cited from earlier work

| SMILES | MIC (S. aureus ATCC25923 MS) [µg/mL] | MIC [1] [µg/mL] | MIC (E. faecium ATCC51559 MDR) [µg/mL] | MIC (S. aureus LNZ-R 432) [µg/mL] | MIC (H. influenzae ATCC49247) [µg/mL] | MIC [2] [µg/mL] | MIC (M. catarrhalis HCI-78) [µg/mL] | MIC (E. faecium LNZ-R LR-4) [µg/mL] | MIC (S. haemolyticus) [µg/mL] | MICS for Moraxella, Pasteurella and Bacteroides spp. [3] [µg/mL] | susceptibility of other Gram-negative bacteria [4] |
| --- | --- | --- | --- | --- | --- | --- | --- | --- | --- | --- | --- |
| CC(=O)NC[C@H]1CN(c2ccc(N3CCC(n4ccnn4)C3)c(F)c2)C(=O)O1 (stereo partly drawn) [Ex. 3, N-((5S)-3-{3-fluoro-4-[3-(1-triazolyl)pyrrolidin-1-yl]-phenyl}-2-oxo-5-oxazolidinylmethyl)acetamide] | 1 (≈ 2.57 µM) | 1 (≈ 2.57 µM) | 0.5 (≈ 1.29 µM) | 16 (≈ 41.2 µM) | 4 (≈ 10.3 µM) | 1 (≈ 2.57 µM) | 1 (≈ 2.57 µM) | 8 (≈ 20.6 µM) | 4 (≈ 10.3 µM) | – | – |
| CC(=O)NC[C@H]1CN(c2ccc(N3CCC(n4cc([N+](=O)[O-])cn4)C3)c(F)c2)C(=O)O1 (stereo partly drawn) [Ex. 9, N-((5S)-3-{3-fluoro-4-[3-(4-nitropyrazol)pyrrolidinyl]-phenyl}-2-oxo-5-oxazolidinylmethyl)acetamide] | 1 (≈ 2.31 µM) | 0.25 (≈ 0.578 µM) | 1 (≈ 2.31 µM) | 8 (≈ 18.5 µM) | 2 (≈ 4.63 µM) | 0.5 (≈ 1.16 µM) | 1 (≈ 2.31 µM) | 4 (≈ 9.25 µM) | 1 (≈ 2.31 µM) | – | – |
| CC(=O)NC[C@H]1CN(c2ccc(N3CCC(n4cc(-c5ccncn5)cn4)C3)c(F)c2)C(=O)O1 (stereo partly drawn) [Ex. 11, N-((5S)-3-{3-fluoro-4-[3-(4-pyrimidin-4-yl-pyrazol-1-yl)pyrrolidin-1-yl]-phenyl}-2-oxo-5-oxazolidinylmethyl)acetamide] | 0.5 (≈ 1.07 µM) | 0.125 (≈ 0.269 µM) | 0.25 (≈ 0.537 µM) | 2 (≈ 4.3 µM) | 4 (≈ 8.59 µM) | 0.5 (≈ 1.07 µM) | 0.5 (≈ 1.07 µM) | 8 (≈ 17.2 µM) | – | – | – |
| CC(=O)NC[C@H]1CN(c2ccc(N3CCC(n4nnc(-c5cccs5)n4)C3)c(F)c2)C(=O)O1 (stereo partly drawn) [Ex. 15, N-((5S)-3-{3-fluoro-4-[3-(5-thiophen-2-yl-tetrazol-2-yl)pyrrolidin-1-yl]-phenyl}-2-oxo-5-oxazolidinylmethyl)acetamide] | 0.5 (≈ 1.06 µM) | 0.125 (≈ 0.265 µM) | 0.25 (≈ 0.53 µM) | 4 (≈ 8.48 µM) | 8 (≈ 17 µM) | 0.5 (≈ 1.06 µM) | 2 (≈ 4.24 µM) | 8 (≈ 17 µM) | – | – | – |
| CC(=O)NC[C@H]1CN(c2ccc(N3CCC(n4ccc(C(F)(F)F)n4)C3)c(F)c2)C(=O)O1 (stereo partly drawn) [Ex. 26, N-((5S)-3-{3-fluoro-4-[3-(3-trifluoromethyl-pyrazol-1-yl)pyrrolidin-1-yl]-phenyl}-2-oxo-5-oxazolidinylmethyl)acetamide] | 2 (≈ 4.39 µM) | 0.5 (≈ 1.1 µM) | 1 (≈ 2.2 µM) | 16 (≈ 35.1 µM) | 1 (≈ 2.2 µM) | 1 (≈ 2.2 µM) | 2 (≈ 4.39 µM) | 2 (≈ 4.39 µM) | 1 (≈ 2.2 µM) | – | – |
| CC(=O)NC[C@H]1CN(c2ccc(N3CCOCC3)c(F)c2)C(=O)O1 [Linezolid, N-[[(5S)-3-[3-fluoro-4-(4-morpholinyl)phenyl]-2-oxo-5-oxazolidinyl]methyl]acetamide, reference compound] | 1 (≈ 2.96 µM) | 1 (≈ 2.96 µM) | 0.5 (≈ 1.48 µM) | 16 to 32 (≈ 47.4 to 94.9 µM) | 16 (≈ 47.4 µM) | 2 (≈ 5.93 µM) | 2 (≈ 5.93 µM) | 64 (≈ 190 µM) | 128 (≈ 379 µM) | 2 to 8 | resistant |

Continued, in another order:

| MIC (S. aureus ATCC25923 MS) [µg/mL] | MIC [1] [µg/mL] | MIC (E. faecium ATCC51559 MDR) [µg/mL] | MIC (S. aureus LNZ-R 432) [µg/mL] | MIC (H. influenzae ATCC49247) [µg/mL] | MIC [2] [µg/mL] | MIC (M. catarrhalis HCI-78) [µg/mL] | MIC (E. faecium LNZ-R LR-4) [µg/mL] | SMILES | MIC (S. haemolyticus) [µg/mL] | MICS for Moraxella, Pasteurella and Bacteroides spp. [3] [µg/mL] | susceptibility of other Gram-negative bacteria [4] |
| --- | --- | --- | --- | --- | --- | --- | --- | --- | --- | --- | --- |
| 1 (≈ 2.14 µM) | 0.25 (≈ 0.536 µM) | 0.5 (≈ 1.07 µM) | 8 (≈ 17.2 µM) | 1 (≈ 2.14 µM) | 0.5 (≈ 1.07 µM) | 2 (≈ 4.29 µM) | 1 (≈ 2.14 µM) | CC(=O)NC[C@H]1CN(c2ccc(N3CCC(n4cc(Br)cn4)C3)c(F)c2)C(=O)O1 (stereo partly drawn) [Ex. 17, N-((5S)-3-{3-fluoro-4-[3-(4-bromopyrazol-1-yl)pyrrolidin-1-yl]-phenyl}-2-oxo-5-oxazolidinylmethyl)acetamide] | 1 (≈ 2.14 µM) | – | – |
| 0.5 (≈ 1.08 µM) | 0.06 (≈ 0.129 µM) | 0.25 (≈ 0.538 µM) | 2 (≈ 4.31 µM) | 4 (≈ 8.61 µM) | 0.25 (≈ 0.538 µM) | 0.5 (≈ 1.08 µM) | 8 (≈ 17.2 µM) | CC(=O)NC[C@H]1CN(c2ccc(N3CCC(n4cc(-c5ccncc5)cn4)C3)c(F)c2)C(=O)O1 (stereo partly drawn) [Ex. 18, N-((5S)-3-{3-fluoro-4-[3-(4-pyridin-4-yl-pyrazol-1-yl)pyrrolidin-1-yl]-phenyl}-2-oxo-5-oxazolidinylmethyl)acetamide] | – | – | – |
| 0.5 (≈ 0.983 µM) | 0.125 (≈ 0.246 µM) | 0.25 (≈ 0.492 µM) | 2 (≈ 3.93 µM) | 4 (≈ 7.87 µM) | 1 (≈ 1.97 µM) | 1 (≈ 1.97 µM) | 64 (≈ 126 µM) | CC(=O)NC[C@H]1CN(c2ccc(N3CCC(n4cc(-c5ccc([N+](=O)[O-])cc5)cn4)C3)c(F)c2)C(=O)O1 (stereo partly drawn) [Ex. 19, N-[(5S)-3-(3-fluoro-4-{3-[4-(4-nitrophenyl)-pyrazol-1-yl]pyrrolidin-1-yl}-phenyl)-2-oxo-5-oxazolidinylmethyl]acetamide] | – | – | – |
